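Exposure lasted 48 hours, with cells grown in 96-well plates and compounds tested at five concentrations. Abbreviation: GI50, concentration required for 50% inhibition of growth.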 Activity calls are given as the source filed them. Rule as the data show it: active = GI50 up to about 1.1 µM and inactive = higher.
How the values were obtained:
Test in all cases: NCI-60 cell line screen, 48 h
SF-268 = system: SF-268
OVCAR-5 = system: OVCAR-5
HCC 2998 = system: HCC 2998
U-251 = system: U-251
T47D = system: T47D
HL-60 = system: HL-60
IGROV-1 = system: IGROV-1
MCF7 = system: MCF7
Hs-578T = system: Hs-578T
SK-MEL-28 = system: SK-MEL-28
MDA-N = system: MDA-N
DU-145 = system: DU-145
A549 = system: A549
SN12C = system: SN12C
TK-10 = system: TK-10
UACC-62 = system: UACC-62
UO-31 = system: UO-31
SR = system: SR
SF-539 = system: SF-539
HOP-92 = system: HOP-92
OVCAR-4 = system: OVCAR-4
CAKI-1 = system: CAKI-1
PC-3 = system: PC-3
SW-620 = system: SW-620
SNB-19 = system: SNB-19
A498 = system: A498
LOX IMVI = system: LOX IMVI
UACC-257 = system: UACC-257
KM12 = system: KM12
EKVX = system: EKVX
COLO 205 = system: COLO 205
SNB-75 = system: SNB-75
MDA-MB-231 = system: MDA-MB-231
NCI-H522 = system: NCI-H522
SK-OV-3 = system: SK-OV-3
HCT-15 = system: HCT-15
RXF 393 = system: RXF 393
CCRF-CEM = system: CCRF-CEM
Malme-3M = system: Malme-3M
K562 = system: K562
SK-MEL-5 = system: SK-MEL-5
BT-549 = system: BT-549
NCI-H226 = system: NCI-H226
OVCAR-8 = system: OVCAR-8
HT-29 = system: HT-29
HOP-62 = system: HOP-62
HCT-116 = system: HCT-116
NCI/ADR-RES = system: NCI/ADR-RES
NCI-H23 = system: NCI-H23
MDA-MB-435 = system: MDA-MB-435
OVCAR-3 = system: OVCAR-3
786-0 = system: 786-0
SF-295 = system: SF-295
NCI-H460 = system: NCI-H460
RPMI-8226 = system: RPMI-8226
M14 = system: M14
ACHN = system: ACHN
MOLT-4 = system: MOLT-4
SK-MEL-2 = system: SK-MEL-2

For Cn1c(=O)c2c(nc(N)n2C2OC(CO)C(O)C2O)n(C)c1=O (stereo not given), the GI50 (SF-268) was > 100 µM (inactive), the GI50 (OVCAR-5) was > 100 µM (inactive) and the GI50 (HCC 2998) was > 100 µM (inactive). The GI50 (U-251) was > 100 µM (inactive), the GI50 (T47D) was > 100 µM (inactive) and the GI50 (HL-60) was > 100 µM (inactive). The GI50 (IGROV-1) was > 100 µM (inactive), the GI50 (MCF7) was > 100 µM (inactive) and the GI50 (Hs-578T) was > 100 µM (inactive). The GI50 (SK-MEL-28) was > 100 µM (inactive), the GI50 (MDA-N) was > 100 µM (inactive) and the GI50 (DU-145) was > 100 µM (inactive). For the same compound, the GI50 (A549) was > 100 µM (inactive), the GI50 (SN12C) was > 100 µM (inactive) and the GI50 (TK-10) was > 100 µM (inactive). For the same compound, the GI50 (UACC-62) was > 100 µM (inactive), the GI50 (UO-31) was > 100 µM (inactive) and the GI50 (SR) was > 100 µM (inactive). The GI50 (SF-539) was > 100 µM (inactive), the GI50 (HOP-92) was 61.9 µM (inactive) and the GI50 (OVCAR-4) was > 100 µM (inactive). The GI50 (CAKI-1) was > 100 µM (inactive), the GI50 (PC-3) was > 100 µM (inactive) and the GI50 (SW-620) was > 100 µM (inactive). For the same compound, the GI50 (SNB-19) was > 100 µM (inactive), the GI50 (A498) was > 100 µM (inactive) and the GI50 (LOX IMVI) was > 100 µM (inactive). The GI50 (UACC-257) was > 100 µM (inactive), the GI50 (KM12) was > 100 µM (inactive) and the GI50 (EKVX) was > 100 µM (inactive). The GI50 (COLO 205) was > 100 µM (inactive), the GI50 (SNB-75) was > 100 µM (inactive) and the GI50 (MDA-MB-231) was > 100 µM (inactive). For the same compound, the GI50 (NCI-H522) was > 100 µM (inactive), the GI50 (SK-OV-3) was > 100 µM (inactive) and the GI50 (HCT-15) was > 100 µM. The GI50 (RXF 393) was > 100 µM (inactive), the GI50 (CCRF-CEM) was > 100 µM (inactive) and the GI50 (Malme-3M) was > 100 µM (inactive). The GI50 (K562) was > 100 µM (inactive), the GI50 (SK-MEL-5) was > 100 µM (inactive) and the GI50 (BT-549) was > 100 µM (inactive). The GI50 (NCI-H226) was > 100 µM (inactive), the GI50 (OVCAR-8) was > 100 µM (inactive) and the GI50 (HT-29) was > 100 µM (inactive). For the same compound, the GI50 (HOP-62) was > 100 µM (inactive), the GI50 (HCT-116) was > 100 µM (inactive) and the GI50 (NCI/ADR-RES) was > 100 µM (inactive). The GI50 (NCI-H23) was > 100 µM (inactive), the GI50 (MDA-MB-435) was > 100 µM (inactive) and the GI50 (OVCAR-3) was > 100 µM (inactive). The GI50 (786-0) was > 100 µM (inactive), the GI50 (SF-295) was > 100 µM (inactive) and the GI50 (NCI-H460) was > 100 µM (inactive). The GI50 (RPMI-8226) was > 100 µM (inactive), the GI50 (M14) was > 100 µM (inactive) and the GI50 (ACHN) was > 100 µM (inactive). The GI50 (MOLT-4) was > 100 µM (inactive).
NC1CCC(N(CC(=O)O)CC(=O)O)C(N(CC(=O)O)CC(=O)O)C1 (stereo not given) was tested, and the GI50 (SK-MEL-2) was > 100 µM (inactive), the GI50 (SF-268) was > 100 µM (inactive) and the GI50 (OVCAR-5) was > 100 µM (inactive). For the same compound, the GI50 (HCC 2998) was > 100 µM (inactive), the GI50 (U-251) was > 100 µM (inactive) and the GI50 (T47D) was > 100 µM (inactive). The GI50 (HL-60) was > 100 µM (inactive), the GI50 (IGROV-1) was > 100 µM (inactive) and the GI50 (MCF7) was > 100 µM (inactive). The GI50 (Hs-578T) was > 100 µM (inactive), the GI50 (SK-MEL-28) was > 100 µM (inactive) and the GI50 (MDA-N) was > 100 µM (inactive). The GI50 (DU-145) was > 100 µM (inactive), the GI50 (A549) was > 100 µM (inactive) and the GI50 (SN12C) was > 100 µM (inactive). For the same compound, the GI50 (TK-10) was > 100 µM (inactive), the GI50 (UACC-62) was > 100 µM (inactive) and the GI50 (UO-31) was > 100 µM (inactive). The GI50 (SR) was > 100 µM (inactive), the GI50 (SF-539) was > 100 µM (inactive) and the GI50 (HOP-92) was > 100 µM (inactive). For the same compound, the GI50 (OVCAR-4) was > 100 µM (inactive), the GI50 (CAKI-1) was > 100 µM (inactive) and the GI50 (PC-3) was > 100 µM (inactive). The GI50 (SW-620) was > 100 µM (inactive), the GI50 (SNB-19) was > 100 µM (inactive) and the GI50 (A498) was > 100 µM (inactive). For the same compound, the GI50 (LOX IMVI) was > 100 µM (inactive), the GI50 (UACC-257) was > 10 µM (inactive) and the GI50 (KM12) was > 100 µM (inactive). The GI50 (COLO 205) was > 100 µM (inactive), the GI50 (SNB-75) was > 100 µM (inactive) and the GI50 (MDA-MB-231) was > 100 µM (inactive). The GI50 (NCI-H522) was > 100 µM (inactive), the GI50 (SK-OV-3) was > 100 µM (inactive) and the GI50 (HCT-15) was > 100 µM. For the same compound, the GI50 (RXF 393) was > 100 µM (inactive), the GI50 (CCRF-CEM) was > 100 µM (inactive) and the GI50 (Malme-3M) was > 100 µM (inactive). The GI50 (K562) was > 100 µM (inactive), the GI50 (SK-MEL-5) was > 100 µM (inactive) and the GI50 (BT-549) was > 100 µM (inactive). The GI50 (NCI-H226) was > 100 µM (inactive), the GI50 (OVCAR-8) was > 100 µM (inactive) and the GI50 (HT-29) was > 100 µM (inactive). The GI50 (HOP-62) was > 100 µM (inactive), the GI50 (HCT-116) was > 100 µM (inactive) and the GI50 (NCI/ADR-RES) was > 100 µM (inactive). The GI50 (NCI-H23) was > 100 µM (inactive), the GI50 (MDA-MB-435) was > 100 µM (inactive) and the GI50 (OVCAR-3) was > 100 µM (inactive). The GI50 (786-0) was > 10 µM (inactive), the GI50 (SF-295) was > 100 µM (inactive) and the GI50 (NCI-H460) was > 100 µM (inactive). For the same compound, the GI50 (RPMI-8226) was > 100 µM (inactive), the GI50 (ACHN) was > 100 µM (inactive) and the GI50 (MOLT-4) was > 100 µM (inactive).

— ChEMBL document CHEMBL1201862, “PubChem BioAssay data set” (2004)
